Experimental data published in publication PMC11729640, “Synthesis and evaluation of 6-arylaminobenzamides as positron emission tomography imaging ligands for the sphingosine-1-phosphate-5 receptor” (RSC Medicinal Chemistry, 2025).

Columns and labels:
[1] = biological target: T1, S1P5 (Homo sapiens, UniProt Q9H228); assay: [35S]GTPγS binding assay, agonist activity at S1P5; assay type: biochemical; conditions: for EC50: n = 3, errors in parentheses derived from 95% confidence intervals, nine concentrations 100 fM to 10 μM; for Efficacy (%): relative efficacy versus S1P against S1P5, single high concentration, single 96-well plate
T1 construct: purchased Eurofins
Description: The membrane preparation was diluted to […] with assay buffer and mixed 1 : 1 (v/v) with a 0.4 mg mL^-1 solution of saponin in assay buffer. […] MerckTM Multiscreen® HTS 96 well filter plates were pre-wet with 70% aqueous EtOH (50 μL per well) for 30 seconds and then washed twice with assay buffer (200 μL per well). […]

[2] = biological target: human serum albumin (HSA) (Homo sapiens, UniProt P02768); assay: Plasma protein binding by human serum albumin (HSA) coated column; assay type: in vitro ADME; conditions: read-out: %PPB (percentage of plasma protein binding)
Description: The physicochemical properties of both sets of compounds was initially performed to assess their potential as brain imaging agents. The calculated partition coefficient (log P), the permeability (Pm), the membrane partition coefficient (Km) and the percentage of plasma protein binding (%PPB) were determined for each compound using established methods (see ESI, ^† Table S1).[22,23] […] The permeability and membrane partition coefficient for the majority of compounds were well within the ideal limits for these parameters (Pm < 0.5; Km < 250), which are based on known CNS imaging agents.[23]
1. Physiochemical Propert ies of 6-arylaminobenz amides 7a–7h and 8a–8e.1
Compound log Pa Pmb Kmb %PPBc
aCalcul ated using Ch emDraw. bDeterm ined using i mmobil ised art ific ial membr ane (IAM) column .
cDetermin ed using human seru m albu min (HSA) coa ted colu mn.

[3] = biological target: T2, S1P1 (Homo sapiens, UniProt P21453); assay: [35S]GTPγS binding assay, agonist activity at S1P1; assay type: biochemical; conditions: n = 3, errors in parentheses derived from 95% confidence intervals
T2 construct: purchased Eurofins
Description: (§1) A GTPγS assay was then conducted to evaluate receptor agonist activity of each compound at nine concentrations from 100 fM to 10 μM (n = 3).[24,25] Initially, all compounds were tested for agonist activity with S1P5 and relative efficacy versus S1P (Table 1).[26] […] Previous work by the Novartis group described the importance of hydrogen bonding between the carboxamide and 2-substituent, to maintain an in-plane conformation of the amide that was critical for agonist activity against S1P receptors.[16] […] This was more pronounced for compounds with both a bulky alkoxy group and a 3-substituent, with 6-arylaminobenzamide 7h found to have the weakest activity. […] Based on the binding studies and the physicochemical results, 6-arylaminobenzamide 7g, named as TEFM78 was chosen as the lead compound.
(§2) The assay buffer was prepared from HEPES (20 mM), NaCl (100 mM), MgCl2 (10 mM) and fatty acid-free BSA (0.1%) at pH 7.4. ChemiScreen™ S1P1–3,5 lysophospholipid receptor membrane preparations were obtained from Eurofins. The membrane preparation was diluted to […] with assay buffer and mixed 1 : 1 (v/v) with a 0.4 mg mL^−1 solution of saponin in assay buffer. Nine concentrations of the compounds to be tested were prepared (10 μM, 1 μM, 100 nM, 10 nM, 1 nM, 100 pM, 10 pM, 1 pM, 100 fM). Merck™ Multiscreen® HTS 96 well filter plates were pre-wet with 70% aqueous EtOH (50 μL per well) for 30 seconds and then washed twice with assay buffer (200 μL per well). To each well was added membrane preparation (25 μL), GDP in assay buffer (25 μL, 2 μM), [^35S]GTPγS in assay buffer (25 μL, 1.2 nM) and test compound (25 μL). For total binding, S1P solution in assay buffer (25 μL, 10 μM) was added and for basal, assay buffer (25 μL) was added. The assay plate was incubated at 30 °C for 0.5 h before the addition of cold assay buffer (100 μL per well) to stop the reaction. The plate was filtered using a Millipore vacuum manifold, with a pressure between 600–800 mbar and then dried at 50 °C for 1–2 h. Betaplate Scint scintillation cocktail (30 μL per well) was added and the disintegrations per minute were determined using a Wallac 1450 Microbeta Trilux liquid scintillation and luminescence counter. EC50 values were derived from non-linear regression analysis using GraphPad Prism Version 6 (GraphPad Software Inc).

[4] = biological target: T3, S1P2 (Homo sapiens, UniProt O95136); assay: [35S]GTPγS binding assay, agonist activity at S1P2; assay type: biochemical; conditions: n = 3, errors in parentheses derived from 95% confidence intervals
T3 construct: purchased Eurofins
Description: as §1, §2

[5] = biological target: T4, S1P3 (Homo sapiens, UniProt Q99500); assay: [35S]GTPγS binding assay, agonist activity at S1P3; assay type: biochemical; conditions: n = 3, errors in parentheses derived from 95% confidence intervals
T4 construct: purchased Eurofins
Description: as §1, §2

T3 sequence (O95136 whole entry): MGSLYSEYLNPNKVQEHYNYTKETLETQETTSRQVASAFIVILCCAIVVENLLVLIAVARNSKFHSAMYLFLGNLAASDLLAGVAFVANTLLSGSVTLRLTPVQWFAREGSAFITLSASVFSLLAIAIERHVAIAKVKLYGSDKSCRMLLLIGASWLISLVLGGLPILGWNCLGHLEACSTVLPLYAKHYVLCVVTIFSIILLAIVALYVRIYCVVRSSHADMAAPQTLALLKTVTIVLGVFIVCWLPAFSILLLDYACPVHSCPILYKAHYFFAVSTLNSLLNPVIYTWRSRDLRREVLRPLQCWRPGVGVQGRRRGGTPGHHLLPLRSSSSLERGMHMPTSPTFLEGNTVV
T2 sequence (P21453 whole entry): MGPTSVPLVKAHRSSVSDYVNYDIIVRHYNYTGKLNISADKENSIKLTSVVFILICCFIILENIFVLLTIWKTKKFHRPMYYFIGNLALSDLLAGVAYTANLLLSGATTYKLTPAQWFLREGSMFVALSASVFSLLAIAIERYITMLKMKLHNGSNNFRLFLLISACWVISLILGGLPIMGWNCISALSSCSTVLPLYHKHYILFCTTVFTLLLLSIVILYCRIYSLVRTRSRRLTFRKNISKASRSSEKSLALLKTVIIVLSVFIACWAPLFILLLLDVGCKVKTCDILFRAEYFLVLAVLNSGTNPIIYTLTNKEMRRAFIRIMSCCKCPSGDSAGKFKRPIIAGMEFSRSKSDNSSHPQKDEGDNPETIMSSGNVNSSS
T1 sequence (Q9H228 whole entry): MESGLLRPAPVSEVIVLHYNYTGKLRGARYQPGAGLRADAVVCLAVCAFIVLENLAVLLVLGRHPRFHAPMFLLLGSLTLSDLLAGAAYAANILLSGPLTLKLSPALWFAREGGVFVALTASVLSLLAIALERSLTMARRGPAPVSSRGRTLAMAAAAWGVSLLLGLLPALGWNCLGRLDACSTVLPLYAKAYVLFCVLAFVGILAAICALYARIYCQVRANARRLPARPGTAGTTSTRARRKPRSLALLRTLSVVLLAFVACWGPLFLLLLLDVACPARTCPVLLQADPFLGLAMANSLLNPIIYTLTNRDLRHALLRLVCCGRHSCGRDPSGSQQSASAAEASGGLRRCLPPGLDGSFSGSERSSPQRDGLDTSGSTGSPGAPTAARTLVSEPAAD
T4 sequence (Q99500 whole entry): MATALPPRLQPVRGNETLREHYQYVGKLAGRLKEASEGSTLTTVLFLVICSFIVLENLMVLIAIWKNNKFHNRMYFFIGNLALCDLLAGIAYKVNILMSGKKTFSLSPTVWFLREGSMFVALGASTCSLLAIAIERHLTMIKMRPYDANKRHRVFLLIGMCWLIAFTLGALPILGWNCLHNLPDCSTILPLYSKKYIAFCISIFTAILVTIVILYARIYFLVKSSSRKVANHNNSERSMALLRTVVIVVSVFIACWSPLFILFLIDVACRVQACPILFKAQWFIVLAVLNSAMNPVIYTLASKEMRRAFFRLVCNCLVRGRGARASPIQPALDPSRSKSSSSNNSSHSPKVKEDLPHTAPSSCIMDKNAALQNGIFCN
human serum albumin (HSA), sequence (P02768 25-609): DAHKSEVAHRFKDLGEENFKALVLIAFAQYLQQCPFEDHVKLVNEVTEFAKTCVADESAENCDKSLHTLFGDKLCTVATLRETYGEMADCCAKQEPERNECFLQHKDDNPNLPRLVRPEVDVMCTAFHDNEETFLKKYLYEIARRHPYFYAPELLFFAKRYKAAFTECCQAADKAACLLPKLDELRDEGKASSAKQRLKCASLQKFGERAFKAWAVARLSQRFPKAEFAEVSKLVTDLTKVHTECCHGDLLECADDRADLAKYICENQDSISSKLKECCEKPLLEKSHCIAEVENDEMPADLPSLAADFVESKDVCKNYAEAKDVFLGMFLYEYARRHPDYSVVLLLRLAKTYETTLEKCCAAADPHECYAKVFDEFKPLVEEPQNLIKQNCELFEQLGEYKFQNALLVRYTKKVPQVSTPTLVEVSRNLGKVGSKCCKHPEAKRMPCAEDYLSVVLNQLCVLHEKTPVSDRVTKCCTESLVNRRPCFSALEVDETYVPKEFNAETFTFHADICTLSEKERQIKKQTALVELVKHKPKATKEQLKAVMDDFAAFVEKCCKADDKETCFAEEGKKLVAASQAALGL

| Compound | EC50 [1] [nM] | Efficacy (%) [1] [%] | fraction unbound [2] | EC50 [3] [nM] | EC50 [4] [nM] | EC50 [5] [nM] |
| --- | --- | --- | --- | --- | --- | --- |
| Cc1cc(F)cc(C)c1Nc1cccc(OC(C)C)c1C(N)=O [Compound 7a, 6-[(4′-Fluoro-2′,6′-dimethylphenyl)amino]-2-isopropoxybenzamide] | 419 | 105 | 0.01 |  |  |  |
| COc1cccc(Nc2c(C)cc(F)cc2C)c1C(N)=O [Compound 7b, 6-[(4′-Fluoro-2′,6′-dimethylphenyl)amino]-2-methoxybenzamide] | 39.8 | 108 | 0.01 | > 10000 | > 10000 | > 10000 |
| Cc1cc(F)cc(C)c1Nc1cccc(OCC(C)C)c1C(N)=O [Compound 7c, 6-[(4′-Fluoro-2′,6′-dimethylphenyl)amino]-2-isobutoxybenzamide] | 180 | 137 |  |  |  |  |
| CCCCOc1cccc(Nc2c(C)cc(F)cc2C)c1C(N)=O [Compound 7d, 2-n-Butoxy-6-[(4′-fluoro-2′,6′-dimethylphenyl)amino]benzamide] | 234 | 140 |  |  |  |  |
| Cc1cc(F)cc(C)c1Nc1cccc(OCCC(C)C)c1C(N)=O [Compound 7e, 6-[(4′-Fluoro-2′,6′-dimethylphenyl)amino]-2-(3′′-methyl-n-butoxy)benzamide] | 49 | 102 |  |  |  |  |
| C=CCOc1cccc(Nc2c(C)cc(F)cc2C)c1C(N)=O [Compound 7f, 2-(Allyloxy)-6-[(4′-fluoro-2′,6′-dimethylphenyl)amino]benzamide] | 6.66 | 164 |  | 25.6 | > 10000 | 27.6 |
| COc1c(C)ccc(Nc2c(C)cc(F)cc2C)c1C(N)=O [Compound 7g, 6-[(4′-Fluoro-2′,6′-dimethylphenyl)amino]-2-methoxy-3-methylbenzamide] | 22.3 | 183 | 0.01 | 104 | > 10000 | 2030 |
| Cc1cc(F)cc(C)c1Nc1ccc(C)c(OCC(C)C)c1C(N)=O [Compound 7h, 6-[(4′-Fluoro-2′,6′-dimethylphenyl)amino]-2-isobutoxy-3-methylbenzamide] | 2240 | 154 |  |  |  |  |
| CCCCCCCCCCCCC/C=C/[C@@H](O)[C@@H](N)COP(=O)(O)O [S1P (1), sphingosine-1-phosphate] |  | 100 |  |  |  | 42.6 |

Results, then the compound that gave them:

| EC50 [1] [nM] | Efficacy (%) [1] [%] | fraction unbound [2] | EC50 [3] [nM] | EC50 [4] [nM] | EC50 [5] [nM] | Compound |
| --- | --- | --- | --- | --- | --- | --- |
| 72.3 | 129 |  |  |  |  | COc1c(-c2ccc(F)cc2)ccc(Nc2c(C)cc(C)cc2C)c1C(N)=O [Compound 8a, 3-(4′′-Fluorophenyl)-6-(mesitylamino)-2-methoxybenzamide] |
| 954 | 136 |  |  |  |  | COc1c(-c2ccccc2F)ccc(Nc2c(C)cc(C)cc2C)c1C(N)=O [Compound 8b, 3-(2′′-Fluorophenyl)-6-(mesitylamino)-2-methoxybenzamide] |
| 29.8 | 120 |  | 76 | > 10000 | > 10000 | COc1ccc(-c2ccc(Nc3c(C)cc(C)cc3C)c(C(N)=O)c2OC)c(F)c1 [Compound 8c, 3-(2′′-Fluoro-4′′-methoxyphenyl)-6-(mesitylamino)-2-methoxybenzamide] |
| 612 | 142 |  |  |  |  | COc1ccc(F)c(-c2ccc(Nc3c(C)cc(C)cc3C)c(C(N)=O)c2OC)c1 [Compound 8d, 3-(2′′-Fluoro-5′′-methoxyphenyl)-6-(mesitylamino)-2-methoxybenzamide] |
| 23.4 | 175 | 0.01 | 0.336 | > 10000 | 172 | COc1c(-c2cccnc2F)ccc(Nc2c(C)cc(C)cc2C)c1C(N)=O [Compound 8e, 3-(2′′-Fluoropyridin-3′′-yl)-6-(mesitylamino)-2-methoxybenzamide] |
